Usually IC50 stands for the concentration that inhibits the measured activity by half. Lower therefore signals greater potency in that assay.

IC50 data for 19 molecules are collected here from BindingDB's records for doi:10.1021/acschembio.7b00653 (University of Konstanz, 2017).

The target in the assay is T1, AP-4-A phosphorylase (Mycobacterium tuberculosis (strain ATCC 25618 / H37Rv), UniProt P9WMK9).
T1 sequence (P9WMK9 whole entry): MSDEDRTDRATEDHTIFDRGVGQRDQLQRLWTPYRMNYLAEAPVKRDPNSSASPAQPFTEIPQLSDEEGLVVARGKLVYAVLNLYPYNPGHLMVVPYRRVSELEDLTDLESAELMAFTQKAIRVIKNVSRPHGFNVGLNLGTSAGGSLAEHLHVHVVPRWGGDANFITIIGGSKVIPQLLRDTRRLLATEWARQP
Put plainly: FRET assay. Conditions: pH 8. As to the method: Dose response curves against Rv2613c with 1 as the substrate for derivatives 5 and 18. 8 nM of Rv2613c were preincubated in buffer (20 mM Tris-HCl (pH 8.0), 50 mM NaCl, 1 mM DTT, 0.2 mg/mL BSA, 5 mM NaH2PO4, 5 mM MgCl2) with indicated amounts of compound solved in DMSO at 25°C for 30 min. Substrate 1 (2 µM in Tris-HCl buffer pH 8.0) was added Measurement of the fluorescence at 570 nm was conducted every 3 min over 1 h. Turnover of probe 1 was calculated by normalization to the intensity of controls. The rate of probe 1 turnover was obtained by linear fitting of probe 1 turnover over time. % Inhibition was calculated relative to the controls. The IC50 was calculated by a non-linear curve fit/dose response curve in Origin.

Some results are limits rather than exact numbers.

Molecule `CS/C(Nc1cccc(C(F)(F)F)c1)=C(/C#N)S(=O)(=O)c1ccc(Cl)cc1` [Synthesized Sulfanylacrylonitril Derivatives 2] returned an IC50 of 0.26 µM.

The molecule `CS/C(Nc1ccccc1)=C(/C#N)S(=O)(=O)c1ccccc1` [Synthesized Sulfanylacrylonitril Derivatives 3] had an IC50 greater than 30 µM.

In the case of `CS/C(Nc1ccccc1)=C(/C#N)S(=O)(=O)c1ccc(Cl)cc1` [Synthesized Sulfanylacrylonitril Derivatives 4], the IC50 was greater than 100 µM.

The molecule `CS/C(Nc1cccc(C(F)(F)F)c1)=C(/C#N)S(=O)(=O)c1ccccc1` [Synthesized Sulfanylacrylonitril Derivatives 5] gave an IC50 of 0.12 µM.

`CS/C(Nc1ccccc1C(F)(F)F)=C(/C#N)S(=O)(=O)c1ccccc1` [Synthesized Sulfanylacrylonitril Derivatives 6] gave an IC50 greater than 100 µM.

For the molecule `CS/C(Nc1ccc(C(F)(F)F)cc1)=C(/C#N)S(=O)(=O)c1ccccc1` [Synthesized Sulfanylacrylonitril Derivatives 7], the concentration for half-maximal inhibition (IC50) came to 16.3 µM.

For `CS/C(Nc1cc(C(F)(F)F)cc(C(F)(F)F)c1)=C(/C#N)S(=O)(=O)c1ccccc1` [Synthesized Sulfanylacrylonitril Derivatives 8], the IC50 is greater than 100 µM.

On to `CCCS/C(Nc1cccc(C(F)(F)F)c1)=C(/C#N)S(=O)(=O)c1ccccc1` [Synthesized Sulfanylacrylonitril Derivatives 10], for which the IC50 worked out at 0.47 µM.

Consider `CC(C)S/C(Nc1cccc(C(F)(F)F)c1)=C(/C#N)S(=O)(=O)c1ccccc1` [Synthesized Sulfanylacrylonitril Derivatives 11], for which the IC50 came out at 0.94 µM.

Molecule `N#C/C(=C(\Nc1cccc(C(F)(F)F)c1)SCc1ccccc1)S(=O)(=O)c1ccccc1` [Synthesized Sulfanylacrylonitril Derivatives 12] displayed an IC50 of 0.8 µM.

With `CS/C(Nc1cccc(C)c1)=C(/C#N)S(=O)(=O)c1ccccc1` [Synthesized Sulfanylacrylonitril Derivatives 14], the IC50 was 4.62 µM.

In the case of `CS/C(Nc1cccc([N+](=O)[O-])c1)=C(/C#N)S(=O)(=O)c1ccccc1` [Synthesized Sulfanylacrylonitril Derivatives 15], the IC50 worked out at 1.3 µM.

Regarding `CS/C(Nc1cccc(C#N)c1)=C(/C#N)S(=O)(=O)c1ccccc1` [Synthesized Sulfanylacrylonitril Derivatives 16], the half-inhibitory concentration (IC50) was 2.51 µM.

As for `COC(=O)c1cccc(N/C(SC)=C(\C#N)S(=O)(=O)c2ccccc2)c1` [Synthesized Sulfanylacrylonitril Derivatives 17], the half-inhibitory concentration (IC50) is 21.8 µM.

As to `CCc1cccc(N/C(SC)=C(\C#N)S(=O)(=O)c2ccccc2)c1` [Synthesized Sulfanylacrylonitril Derivatives 18], the half-inhibitory concentration (IC50) came to 0.57 µM. This IC50 is about 38-fold lower than that of the molecule before.

As for `CCCc1cccc(N/C(SC)=C(\C#N)S(=O)(=O)c2ccccc2)c1` [Synthesized Sulfanylacrylonitril Derivatives 19], the midpoint of inhibition, the IC50, lay at 0.96 µM.

`CS/C(Nc1cccc(C(C)C)c1)=C(/C#N)S(=O)(=O)c1ccccc1` [Synthesized Sulfanylacrylonitril Derivatives 20] registered a half-maximal inhibitory concentration (IC50) of 1.77 µM.

Take `COc1cccc(N/C(SC)=C(\C#N)S(=O)(=O)c2ccccc2)c1` [Synthesized Sulfanylacrylonitril Derivatives 21]: the IC50 was determined as 11.3 µM.

Consider `CS/C(Nc1cc(C)cc(C)c1)=C(/C#N)S(=O)(=O)c1ccccc1` [Synthesized Sulfanylacrylonitril Derivatives 22], for which the half-inhibitory concentration (IC50) is greater than 100 µM.
